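Where inhibition never reached the appropriate level, the endpoint shown equals the highest concentration tested. Otherwise, values were interpolated linearly from a five-concentration, 48-hour dose response in 96-well plates. Abbreviation: GI50, concentration required for 50% inhibition of growth. The concentration for full growth arrest is given as TGI.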
Assays:
Assay in all cases: NCI tumour cell line growth inhibition, 48 h
[1] = system: BT-549 breast
[2] = system: SF-295 CNS
[3] = system: 786-0 renal
[4] = system: HCC-2998 colon
[5] = system: K-562 leukemia
[6] = system: SK-MEL-28 melanoma
[7] = system: NCI/ADR-RES ovarian
[8] = system: HL-60(TB) leukemia
[9] = system: SF-539 CNS
[10] = system: SN12C renal
[11] = system: LOX IMVI melanoma
[12] = system: HS 578T breast
[13] = system: HOP-92 NSCLC
[14] = system: OVCAR-5 ovarian
[15] = system: SW-620 colon
[16] = system: MDA-MB-468 breast
[17] = system: RXF 393 renal
[18] = system: HCT-116 colon
[19] = system: SR leukemia
[20] = system: KM12 colon
[21] = system: EKVX NSCLC
[22] = system: MDA-MB-231 breast
[23] = system: A498 renal
[24] = system: MOLT-4 leukemia
[25] = system: T-47D breast
[26] = system: ACHN renal
[27] = system: PC-3 prostate
[28] = system: HOP-62 NSCLC
[29] = system: SF-268 CNS
[30] = system: NCI-H522 lung
[31] = system: CAKI-1 renal
[32] = system: CCRF-CEM leukemia
[33] = system: COLO 205 colon
[34] = system: HT29 colon
[35] = system: SK-MEL-5 melanoma
[36] = system: RPMI-8226 leukemia
[37] = system: IGROV1 ovarian
[38] = system: NCI-H23 lung
[39] = system: OVCAR-4 ovarian
[40] = system: U251 CNS
[41] = system: MCF7 breast
[42] = system: A549 NSCLC
[43] = system: HCT-15 colon
[44] = system: UACC-62 melanoma
[45] = system: UO-31 renal
[46] = system: OVCAR-3 ovarian
[47] = system: SK-MEL-2 melanoma
[48] = system: SNB-19 CNS
[49] = system: UACC-257 melanoma
[50] = system: NCI-H460 lung
[51] = system: DU-145 prostate
[52] = system: NCI-H226 lung
[53] = system: SK-OV-3 ovarian
[54] = system: MALME-3M melanoma
[55] = system: OVCAR-8 ovarian
[56] = system: TK-10 renal
[57] = system: SNB-75 CNS
[58] = system: MDA-MB-435
[59] = system: M14 melanoma

## Cc1ccc(/C=C(\C#N)n2nnc3c(F)cccc32)cc1
[1]
  GI50: 0.365 µM
  TGI: 2.49 µM
[2]
  GI50: 0.289 µM
  TGI: 50.8 µM
[3]
  GI50: 0.424 µM
  TGI: 15.8 µM
[4]
  GI50: 0.971 µM
  TGI: 3.24 µM
[5]
  GI50: 0.0624 µM
[6]
  GI50: 0.825 µM
  TGI: > 100 µM
[7]
  GI50: 0.111 µM
  TGI: 0.343 µM
[8]
  GI50: 0.196 µM
  TGI: 0.519 µM
[9]
  GI50: 0.2 µM
  TGI: 0.467 µM
[10]
  GI50: 0.416 µM
  TGI: 2.25 µM
[11]
  GI50: 0.349 µM
  TGI: 2.3 µM
[12]
  GI50: 0.379 µM
  TGI: > 100 µM
[13]
  GI50: 0.0797 µM
  TGI: 1.68 µM
[14]
  GI50: 0.421 µM
  TGI: 5.24 µM
[15]
  GI50: 0.25 µM
  TGI: > 100 µM
[16]
  GI50: 1.53 µM
  TGI: 8.71 µM
[17]
  GI50: 0.237 µM
  TGI: 0.735 µM
[18]
  GI50: 0.285 µM
  TGI: > 35.8 µM
[19]
  GI50: 0.254 µM
  TGI: 4.31 µM
[20]
  GI50: 0.47 µM
  TGI: > 100 µM
[21]
  GI50: 1.56 µM
  TGI: > 94.1 µM
[22]
  GI50: 0.426 µM
  TGI: 2.77 µM
[23]
  GI50: 10.8 µM
  TGI: 87 µM
[24]
  GI50: 0.473 µM
  TGI: 4.4 µM
[25]
  GI50: 1.63 µM
  TGI: > 100 µM
[26]
  GI50: 0.555 µM
  TGI: > 100 µM
[27]
  GI50: 0.328 µM
  TGI: > 38.9 µM
[28]
  GI50: 0.398 µM
  TGI: 6.29 µM
[29]
  GI50: 0.765 µM
  TGI: > 61.5 µM
[30]
  GI50: 0.0844 µM
  TGI: 0.36 µM
[31]
  GI50: 0.152 µM
  TGI: > 100 µM
[32]
  GI50: 0.285 µM
  TGI: 1.66 µM
[33]
  GI50: 0.294 µM
  TGI: 0.739 µM
[34]
  GI50: 0.426 µM
  TGI: > 100 µM
[35]
  GI50: 0.399 µM
  TGI: 4.36 µM
[36]
  GI50: 0.296 µM
  TGI: 1.71 µM
[37]
  GI50: 0.507 µM
  TGI: 9.15 µM
[38]
  GI50: 0.523 µM
  TGI: 29 µM
[39]
  GI50: 2.79 µM
  TGI: > 100 µM
[40]
  GI50: 0.387 µM
  TGI: > 42.7 µM
[41]
  GI50: 1.53 µM
  TGI: > 100 µM
[42]
  GI50: 0.504 µM
  TGI: > 100 µM
[43]
  GI50: 0.319 µM
  TGI: > 100 µM
[44]
  GI50: 0.273 µM
  TGI: 27 µM
[45]
  GI50: 0.324 µM
  TGI: > 100 µM
[46]
  GI50: 0.254 µM
  TGI: 0.941 µM
[47]
  GI50: 0.302 µM
  TGI: > 100 µM
[48]
  GI50: 0.718 µM
  TGI: > 100 µM
[49]
  GI50: 0.894 µM
  TGI: > 100 µM
[50]
  GI50: 0.376 µM
  TGI: 3.3 µM
[51]
  GI50: 0.386 µM
  TGI: > 100 µM
[52]
  GI50: 0.936 µM
  TGI: > 62.9 µM
[53]
  GI50: 0.585 µM
  TGI: 46.2 µM
[54]
  GI50: 0.404 µM
  TGI: > 96.2 µM
[55]
  GI50: 0.328 µM
  TGI: 1.69 µM
[56]
  GI50: 2.7 µM
  TGI: 7.79 µM

## CN(C)CCCNC(=O)c1cc(NC(=O)c2cc(NC(=O)c3ccc(/C=C/c4ccccc4)cc3)cn2C)cn1C
[1]
  GI50: 4.28 µM
  TGI: 16.5 µM
[2]
  GI50: 8.56 µM
  TGI: > 31.3 µM
[3]
  GI50: 9.14 µM
  TGI: > 31.3 µM
[4]
  GI50: 10.1 µM
  TGI: > 31.3 µM
[5]
  GI50: 5.83 µM
  TGI: 19 µM
[6]
  GI50: 15.2 µM
  TGI: > 31.3 µM
[7]
  GI50: 7.76 µM
  TGI: 24.3 µM
[8]
  GI50: 7.05 µM
  TGI: 20.7 µM
[9]
  GI50: 5.41 µM
  TGI: 10.9 µM
[10]
  GI50: 7.41 µM
  TGI: > 31.3 µM
[11]
  GI50: 4.67 µM
  TGI: 8.86 µM
[12]
  GI50: 8.39 µM
  TGI: > 31.3 µM
[13]
  GI50: 3.95 µM
  TGI: 17.7 µM
[14]
  GI50: 20.3 µM
  TGI: > 31.3 µM
[15]
  GI50: 6.62 µM
  TGI: 14.9 µM
[16]
  GI50: 5.72 µM
  TGI: 14.5 µM
[17]
  GI50: 3.2 µM
  TGI: 19 µM
[18]
  GI50: 5.36 µM
  TGI: 13.4 µM
[20]
  GI50: 7.16 µM
  TGI: 18.5 µM
[21]
  GI50: 10.6 µM
  TGI: > 31.3 µM
[57]
  GI50: 1.98 µM
  TGI: 24.6 µM
[22]
  GI50: 8.81 µM
  TGI: > 31.3 µM
[23]
  GI50: 25.2 µM
  TGI: > 31.3 µM
[24]
  GI50: 7.27 µM
  TGI: 25.9 µM
[25]
  GI50: 6.01 µM
  TGI: > 31.3 µM
[26]
  GI50: 11.5 µM
  TGI: > 31.3 µM
[27]
  GI50: 10.1 µM
  TGI: > 31.3 µM
[28]
  GI50: 7.16 µM
  TGI: 19.8 µM
[58]
  GI50: 8.48 µM
  TGI: > 31.3 µM
[29]
  GI50: 10.6 µM
  TGI: > 31.3 µM
[30]
  GI50: 7.34 µM
  TGI: 24.2 µM
[31]
  GI50: 10.9 µM
  TGI: > 31.3 µM
[32]
  GI50: 5.03 µM
  TGI: 21.5 µM
[33]
  GI50: 9.44 µM
  TGI: 26.4 µM
[34]
  GI50: 5.89 µM
  TGI: 21.1 µM
[35]
  GI50: 8.85 µM
  TGI: > 31.3 µM
[36]
  GI50: 3.51 µM
  TGI: 16.5 µM
[37]
  GI50: 22.5 µM
  TGI: > 31.3 µM
[38]
  GI50: 13.2 µM
  TGI: > 31.3 µM
[59]
  GI50: 5.05 µM
  TGI: 10.1 µM
[39]
  GI50: 16.1 µM
  TGI: > 31.3 µM
[40]
  GI50: 5.36 µM
  TGI: 10.7 µM
[41]
  GI50: 1.71 µM
  TGI: 6.85 µM
[42]
  GI50: 13.3 µM
  TGI: > 31.3 µM
[43]
  GI50: 7.26 µM
  TGI: 25.7 µM
[44]
  GI50: 7.46 µM
  TGI: > 31.3 µM
[45]
  GI50: 9.91 µM
  TGI: > 31.3 µM
[46]
  GI50: 6.75 µM
  TGI: 26.4 µM
[47]
  GI50: 5.32 µM
  TGI: 10.9 µM
[48]
  GI50: 16.7 µM
  TGI: > 31.3 µM
[49]
  GI50: 10.5 µM
  TGI: > 31.3 µM
[50]
  GI50: 6.91 µM
  TGI: 16.2 µM
[51]
  GI50: 11.5 µM
  TGI: > 31.3 µM
[52]
  GI50: 9.93 µM
  TGI: > 31.3 µM
[53]
  GI50: 17.6 µM
  TGI: > 31.3 µM
[54]
  GI50: 7.41 µM
  TGI: > 31.3 µM
[55]
  GI50: 6.5 µM
  TGI: 18.7 µM
[56]
  GI50: 12.1 µM
  TGI: > 31.3 µM
